Experimental findings from patent US4336397A, “2,4-Dioxo-4-substituted-1-butanoic acid derivatives useful in treating urinary tract calcium oxalate lithiasis” (Merck & Co., Inc., priority 1980, dated 1982) are described below.

Each structure is given as a SMILES string.

This test deals with T1, pig liver glycolate oxidase (Sus scrofa, UniProt I3LVF1).
T1 construct: The enzyme was pig liver glycolate oxidase; from tissue; host or cells: pig liver
T1 sequence (I3LVF1 1-370): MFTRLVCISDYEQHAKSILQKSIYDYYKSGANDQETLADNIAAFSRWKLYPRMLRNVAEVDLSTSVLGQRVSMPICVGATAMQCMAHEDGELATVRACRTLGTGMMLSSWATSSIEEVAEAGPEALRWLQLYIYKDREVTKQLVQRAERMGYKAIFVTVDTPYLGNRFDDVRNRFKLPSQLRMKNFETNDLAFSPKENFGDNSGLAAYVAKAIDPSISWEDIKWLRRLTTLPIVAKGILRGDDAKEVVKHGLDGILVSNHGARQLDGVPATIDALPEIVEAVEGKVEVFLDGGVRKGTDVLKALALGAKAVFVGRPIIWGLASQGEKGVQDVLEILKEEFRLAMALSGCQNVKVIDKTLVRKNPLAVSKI
Briefly: Glycolate Oxidase Enzyme Inhibition. It is filed as biochemical. The conditions noted are these: 25° C., 0.10 M phosphate buffer, pH 7.0, 3 mM EDTA; 2×10^-4 M sodium glycolate; initial rates 1 to 3 minutes, 600 nm. As to the method:
The usefulness of the compounds of the present invention in treating urinary tract, especially renal, calcium oxalate lithiasis, is shown by the ability of those compounds to inhibit the glycolate oxidase enzyme. […] The activity of the enzyme, in turn, was measured by following the rate of reduction of sodium 2,6-dichlorophenyl-indophenol by sodium glycolate in the presence of the enzyme. The enzyme was pig liver glycolate oxidase. The reaction was followed spectrophotometrically at 600 nm. The assay was conducted at 25° C. in a 0.10 M phosphate buffer, pH 7.0, containing 3 mM EDTA. Initial substrate concentrations were 5×10^-5 M of […] and 2×10^-4 M of sodium glycolate. Reactions were initiated by the addition of enzyme. Initial rates during the period from 1 to 3 minutes after the addition of enzyme were recorded on a Beckman Acta M-VI spectrophotometer. One control was run simultaneously with three reactions, and all initial rates were adjusted to a common control rate. For further details of this procedure, see Randall et al., J. Med. Chem., 22, 6,612 (1979).
As usually defined, the IC50 is the midpoint of a concentration-inhibition curve. On to `O=C(O)C(=O)CC(=O)c1ccc(C2CCCc3ccccc32)cc1` (centres unmarked) [4-[4-(1,2,3,4-tetrahydro-1-naphthalenyl)phenyl]-2,4-dioxo-1-butanoic acid], for which the IC50 is 2100 nM.
With `O=C(O)C(=O)CC(=O)c1ccc(C2CCCCC2)cc1` [4-(4-cyclohexylphenyl)-2,4-dioxo-1-butanoic acid] the figure was 2500 nM; with `O=C(O)C(=O)CC(=O)c1ccc(Cc2ccc(Cl)c(Cl)c2)cc1` [4-[4-(3,4-dichlorophenylmethyl)phenyl]-2,4-dioxo-1-butanoic acid], 460 nM.
Next, `O=C(O)C(=O)CC(=O)c1ccc(-c2ccc(Br)cc2)cc1` [4-[(4'-bromo-1,1'-biphenyl)-4-yl]-2,4-dioxo-1-butanoic acid]: 70 nM; `CCCCCCCCCc1ccc(C(=O)CC(=O)C(=O)O)cc1` [2,4-dioxo-4-(4-nonylphenyl)-1-butanoic acid]: 670 nM.
